Experimental data reported in patent US9296725B2, “Heterocyclyl pyrimidine analogues as TYK2 inhibitors” (Cellzome Limited, priority 2012, dated 2016).
pIC50: −log10 of the molar value.

Legend:
[1] = target: T1, TYK2 (Homo sapiens, UniProt P29597); experiment: Kinobeads assay, TYK2 (competition binding in mixed Molt4/Ramos cell lysate, dot blot detection); details: Kinobeads assay, Molt4/Ramos lysate; read-out: TYK2 Band (Kinobeads assay potency, IC50)
T1 construct: endogenous in cells; host or cells: Molt4 (ATCC CRL-1582) and Ramos (ATCC CRL-1596), mixed lysate 1:2
In short: (§1)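 JAK2 and TYK2 retained on Kinobeads (immobilized aminopyrido-pyrimidine ligand) from 1:2 Molt4:Ramos lysate (10 mg/mL) were quantified by antibody dot blot (Odyssey infrared) after 3 h cold incubation with compound. Nine-step 1:3 dilution series; IC50 calculated from curves.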

[2] = target: T2, JAK2 (Homo sapiens, UniProt O60674); experiment: Kinobeads assay, JAK2 (competition binding in mixed Molt4/Ramos cell lysate, dot blot detection); details: read-out: JAK2 Band (Kinobeads assay potency, IC50)
T2 construct: endogenous in cells; host or cells: Molt4 (ATCC CRL-1582) and Ramos (ATCC CRL-1596), mixed lysate 1:2
In short: as §1

T1 sequence (P29597 whole entry): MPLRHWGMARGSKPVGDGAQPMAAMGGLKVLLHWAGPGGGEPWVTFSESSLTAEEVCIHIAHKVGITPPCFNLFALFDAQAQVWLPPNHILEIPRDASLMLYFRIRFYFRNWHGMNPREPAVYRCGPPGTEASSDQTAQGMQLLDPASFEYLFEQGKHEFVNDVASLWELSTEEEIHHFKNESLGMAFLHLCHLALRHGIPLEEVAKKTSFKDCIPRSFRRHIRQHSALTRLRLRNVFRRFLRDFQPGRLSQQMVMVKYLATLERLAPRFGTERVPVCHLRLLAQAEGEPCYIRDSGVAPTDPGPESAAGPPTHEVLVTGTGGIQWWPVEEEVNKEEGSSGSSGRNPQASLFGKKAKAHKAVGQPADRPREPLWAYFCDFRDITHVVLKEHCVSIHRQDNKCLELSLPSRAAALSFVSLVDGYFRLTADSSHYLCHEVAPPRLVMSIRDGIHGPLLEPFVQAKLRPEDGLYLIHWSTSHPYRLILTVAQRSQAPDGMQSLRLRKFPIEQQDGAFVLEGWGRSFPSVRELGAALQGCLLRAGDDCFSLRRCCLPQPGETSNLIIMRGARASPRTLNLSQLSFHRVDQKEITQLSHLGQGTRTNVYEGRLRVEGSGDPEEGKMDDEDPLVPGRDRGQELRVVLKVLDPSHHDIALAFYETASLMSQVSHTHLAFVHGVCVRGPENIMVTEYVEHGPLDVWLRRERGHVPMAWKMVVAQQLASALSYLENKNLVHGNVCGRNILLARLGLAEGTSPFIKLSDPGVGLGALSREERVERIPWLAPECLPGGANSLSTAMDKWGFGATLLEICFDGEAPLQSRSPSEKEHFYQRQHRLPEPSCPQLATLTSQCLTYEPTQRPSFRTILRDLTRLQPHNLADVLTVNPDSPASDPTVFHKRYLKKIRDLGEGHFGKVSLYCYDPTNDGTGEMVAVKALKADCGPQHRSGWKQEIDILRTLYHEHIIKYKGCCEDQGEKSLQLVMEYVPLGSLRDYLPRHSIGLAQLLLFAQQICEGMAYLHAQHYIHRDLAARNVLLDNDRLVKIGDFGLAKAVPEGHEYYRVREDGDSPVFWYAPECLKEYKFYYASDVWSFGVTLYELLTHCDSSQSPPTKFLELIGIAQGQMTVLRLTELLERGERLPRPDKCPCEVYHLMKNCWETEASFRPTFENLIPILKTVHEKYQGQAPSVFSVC
T2 sequence (O60674 whole entry): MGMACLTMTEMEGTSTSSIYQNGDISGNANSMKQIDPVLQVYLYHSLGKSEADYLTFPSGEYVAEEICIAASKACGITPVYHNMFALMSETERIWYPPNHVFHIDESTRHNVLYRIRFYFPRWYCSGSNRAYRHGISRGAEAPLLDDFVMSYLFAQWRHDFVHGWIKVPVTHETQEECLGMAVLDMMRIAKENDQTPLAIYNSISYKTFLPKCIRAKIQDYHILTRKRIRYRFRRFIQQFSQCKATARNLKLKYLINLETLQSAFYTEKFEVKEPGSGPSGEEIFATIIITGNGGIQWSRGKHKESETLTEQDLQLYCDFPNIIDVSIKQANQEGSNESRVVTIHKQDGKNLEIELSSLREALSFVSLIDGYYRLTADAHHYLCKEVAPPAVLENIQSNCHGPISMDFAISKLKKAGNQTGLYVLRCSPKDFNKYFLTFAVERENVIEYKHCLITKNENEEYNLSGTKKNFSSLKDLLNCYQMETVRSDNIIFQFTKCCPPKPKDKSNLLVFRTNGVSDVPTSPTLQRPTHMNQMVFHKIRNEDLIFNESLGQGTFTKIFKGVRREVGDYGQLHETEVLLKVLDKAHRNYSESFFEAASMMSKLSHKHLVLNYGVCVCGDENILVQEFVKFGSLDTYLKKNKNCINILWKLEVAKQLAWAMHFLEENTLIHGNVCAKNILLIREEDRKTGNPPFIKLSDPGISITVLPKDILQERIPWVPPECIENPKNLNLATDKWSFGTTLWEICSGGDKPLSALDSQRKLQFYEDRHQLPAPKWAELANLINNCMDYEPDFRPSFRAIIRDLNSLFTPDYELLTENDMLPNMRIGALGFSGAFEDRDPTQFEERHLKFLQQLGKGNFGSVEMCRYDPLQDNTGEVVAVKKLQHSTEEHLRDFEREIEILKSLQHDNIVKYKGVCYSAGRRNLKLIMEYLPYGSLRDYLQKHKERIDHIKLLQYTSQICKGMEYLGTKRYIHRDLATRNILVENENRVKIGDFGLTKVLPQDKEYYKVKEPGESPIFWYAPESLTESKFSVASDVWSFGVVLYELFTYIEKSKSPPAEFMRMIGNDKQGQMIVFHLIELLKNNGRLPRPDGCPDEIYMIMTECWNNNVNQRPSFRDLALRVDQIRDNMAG

| SMILES | pIC50 [1] | pIC50 [2] |
| --- | --- | --- |
| C[C@@H](CO)NC(=O)Cn1cc(Nc2nccc(NCc3c(F)cccc3F)n2)cn1 [Example I-151] | 7.00 to 8.00 | 5.00 to 6.00 |
| O=C(Cn1cc(Nc2nccc(NCc3c(F)cccc3F)n2)cn1)NC1CC1 [Example I-152] | 7.00 to 8.00 | 5.00 to 6.00 |
| C[C@@H](CO)NC(=O)Cn1cc(Nc2nccc(NCc3c(F)ccc(C#N)c3F)n2)cn1 [Example I-153] | ≥ 8.00 | 5.00 to 6.00 |
| C[C@H](CO)NC(=O)Cn1cc(Nc2nccc(NCc3c(F)ccc(C#N)c3F)n2)cn1 [Example I-154] | ≥ 8.00 | 5.00 to 6.00 |
| Cc1cccc(F)c1CNc1ccnc(Nc2cnn(CC(=O)NC(C)C)c2)n1 [Example I-155] | ≥ 8.00 | 5.00 to 6.00 |
| Cc1cccc(F)c1CNc1ccnc(Nc2cnn(CC(=O)N[C@@H](C)CO)c2)n1 [Example I-156] | ≥ 8.00 | 5.00 to 6.00 |
| NC(=O)Cn1cc(Nc2ncc(F)c(NCc3c(F)cc(F)cc3F)n2)cn1 [Example I-157] | 7.00 to 8.00 | 5.00 to 6.00 |
| O=C(Cn1cc(Nc2ncc(Cl)c(NCc3c(F)cccc3F)n2)cn1)N1CCOCC1 [Example I-161] | ≥ 8.00 | 6.00 to 7.00 |
| O=C(Cn1cc(Nc2ncc(Cl)c(NCc3cc(F)cc(F)c3)n2)cn1)N1CCOCC1 [Example I-162] | 7.00 to 8.00 | 7.00 to 8.00 |
| OCCn1cc(Nc2ncc(Cl)c(NCc3cc(Br)ccc3F)n2)cn1 [Example I-164] | 7.00 to 8.00 | 6.00 to 7.00 |
| Cn1cc(Nc2ncc(Cl)c(NCc3cc(F)cc(C(F)(F)F)c3)n2)cn1 [Example I-166] | 6.00 to 7.00 | 5.00 to 6.00 |
| N#Cc1cccc(CNc2nc(Nc3cnn(CCO)c3)ncc2F)c1 [Example I-167] | 7.00 to 8.00 | 5.00 to 6.00 |
| OCCn1cc(Nc2ncc(F)c(NCc3cccc(F)c3F)n2)cn1 [Example I-170] | 6.00 to 7.00 | 5.00 to 6.00 |
| Cn1cc(Nc2ncc(Cl)c(NCc3c(F)cccc3F)n2)cn1 [Example I-175] | 7.00 to 8.00 | 5.00 to 6.00 |
| Cn1cc(Nc2ncc(Cl)c(NCc3cc(F)cc(F)c3)n2)cn1 [Example I-176] | 7.00 to 8.00 | 7.00 to 8.00 |
| Cn1cc(Nc2ncc(F)c(NCc3cccc(F)c3F)n2)cn1 [Example I-177] | 6.00 to 7.00 | 5.00 to 6.00 |
| O=C(Cn1cc(Nc2ncc(Cl)c(NCc3cccc(F)c3F)n2)cn1)N1CCOCC1 [Example I-178] | 7.00 to 8.00 | 6.00 to 7.00 |
| Cn1cc(Nc2ncc(Cl)c(NCc3cccc(F)c3F)n2)cn1 [Example I-179] | 6.00 to 7.00 | 6.00 to 7.00 |
| OCCn1cc(Nc2ncc(Cl)c(NCc3cccc(F)c3F)n2)cn1 [Example I-180] | 7.00 to 8.00 | 6.00 to 7.00 |
| OCCn1cc(Nc2ncc(Cl)c(NCc3cc(F)cc(C(F)(F)F)c3)n2)cn1 [Example I-181] | 6.00 to 7.00 | 5.00 to 6.00 |
| Cn1cc(Nc2ncc(F)c(NCc3cccc(C#N)c3)n2)cn1 [Example I-183] | 7.00 to 8.00 | 5.00 to 6.00 |
| CNC(=O)Cn1cc(Nc2ncc(Cl)c(NCc3cc(F)cc(C(F)(F)F)c3)n2)cn1 [Example I-189] | 6.00 to 7.00 | 5.00 to 6.00 |
| OCCn1cc(Nc2ncc(F)c(NCc3c(F)ccc(F)c3F)n2)cn1 [Example I-202] | ≥ 8.00 | 6.00 to 7.00 |
| OCCn1cc(Nc2ncc(F)c(NCc3cc(F)ccc3F)n2)cn1 [Example I-203] | ≥ 8.00 | 7.00 to 8.00 |
| OCCn1cc(Nc2ncc(F)c(NCc3c(F)cccc3F)n2)cn1 [Example I-204] | ≥ 8.00 | 5.00 to 6.00 |
| OCCn1cc(Nc2ncc(F)c(NCc3ccccc3F)n2)cn1 [Example I-205] | 7.00 to 8.00 | 5.00 to 6.00 |
| OCCn1cc(Nc2ncc(F)c(NCc3cccc(F)c3)n2)cn1 [Example I-210] | 7.00 to 8.00 | 6.00 to 7.00 |
| Cn1cc(Nc2ncc(Cl)c(NCc3cc(Br)ccc3F)n2)cn1 [Example I-218] | 6.00 to 7.00 | 6.00 to 7.00 |

Further lines, results first:

| pIC50 [1] | pIC50 [2] | SMILES |
| --- | --- | --- |
| 6.00 to 7.00 | 5.00 to 6.00 | Cn1cc(Nc2ncc(Cl)c(NCc3ccccc3)n2)cn1 [Example I-158] |
| 7.00 to 8.00 | 5.00 to 6.00 | Cn1cc(Nc2ncc(Cl)c(NCc3cccc(C#N)c3)n2)cn1 [Example I-159] |
| 7.00 to 8.00 | 5.00 to 6.00 | O=C(Cn1cc(Nc2ncc(Cl)c(NCc3ccccc3)n2)cn1)N1CCOCC1 [Example I-160] |
| 6.00 to 7.00 | 5.00 to 6.00 | Cn1cc(Nc2ncc(Cl)c(NCc3cccc(Br)c3)n2)cn1 [Example I-163] |
| 7.00 to 8.00 | 5.00 to 6.00 | O=C(O)Cn1cc(Nc2ncc(Cl)c(NCc3c(F)cccc3F)n2)cn1 [Example I-165] |
| 6.00 to 7.00 | 6.00 to 7.00 | O=C(O)Cn1cc(Nc2ncc(Cl)c(NCc3cc(F)cc(F)c3)n2)cn1 [Example I-168] |
| 6.00 to 7.00 | 5.00 to 6.00 | Cc1cnc(Nc2cnn(CCO)c2)nc1NCc1ccccc1 [Example I-169] |
| 7.00 to 8.00 | 6.00 to 7.00 | OCCn1cc(Nc2ncc(Cl)c(NCc3cccc(F)c3)n2)cn1 [Example I-171] |
| 7.00 to 8.00 | 6.00 to 7.00 | N#Cc1cccc(CNc2nc(Nc3cnn(CC(=O)N4CCOCC4)c3)ncc2Cl)c1 [Example I-172] |
| 6.00 to 7.00 | 6.00 to 7.00 | Cn1cc(Nc2ncc(Cl)c(NCc3ccccc3F)n2)cn1 [Example I-173] |
| 7.00 to 8.00 | 6.00 to 7.00 | OCCn1cc(Nc2ncc(Cl)c(NCc3ccccc3F)n2)cn1 [Example I-174] |
| 7.00 to 8.00 | 6.00 to 7.00 | N#Cc1cccc(CNc2nc(Nc3cnn(CCO)c3)ncc2Cl)c1 [Example I-182] |
| 6.00 to 7.00 | 5.00 to 6.00 | COc1ccccc1CNc1nc(Nc2cnn(CCO)c2)ncc1Cl [Example I-185] |
| 6.00 to 7.00 | 5.00 to 6.00 | COc1cccc(CNc2nc(Nc3cnn(CCO)c3)ncc2Cl)c1 [Example I-186] |
| 7.00 to 8.00 | 6.00 to 7.00 | O=C(Cn1cc(Nc2ncc(Cl)c(NCc3ccccc3)n2)cn1)N1CCNCC1 [Example I-187] |
| 7.00 to 8.00 | 5.00 to 6.00 | O=C(Cn1cc(Nc2ncc(Cl)c(NCc3ccccc3)n2)cn1)N1CC2COCC2C1 (centres unmarked) [Example I-188] |
| 6.00 to 7.00 | 6.00 to 7.00 | CNC(=O)Cn1cc(Nc2ncc(Cl)c(NCc3cc(F)cc(F)c3)n2)cn1 [Example I-190] |
| 6.00 to 7.00 | 5.00 to 6.00 | OCCn1cc(Nc2ncc(Cl)c(NCc3ccccc3C(F)(F)F)n2)cn1 [Example I-191] |
| 7.00 to 8.00 | 6.00 to 7.00 | OCCn1cc(Nc2ncc(Cl)c(NCc3ccccc3)n2)cn1 [Example I-192] |
| 6.00 to 7.00 | 5.00 to 6.00 | OCCn1cc(Nc2ncc(F)c(NCc3ccccc3)n2)cn1 [Example I-193] |
| 7.00 to 8.00 | 6.00 to 7.00 | O=C(Cn1cc(Nc2ncc(Cl)c(NCc3ccccc3)n2)cn1)N1CC2CCC1CN2 (centres unmarked) [Example I-194] |

| pIC50 [1] | pIC50 [2] | SMILES |
| --- | --- | --- |
| 6.00 to 7.00 | 5.00 to 6.00 | CNC(=O)Cn1cc(Nc2ncc(Cl)c(NCc3ccccc3)n2)cn1 [Example I-195] |
| 7.00 to 8.00 | 5.00 to 6.00 | O=C(Cn1cc(Nc2ncc(Cl)c(NCc3ccccc3)n2)cn1)N1CCCC1 [Example I-196] |
| 6.00 to 7.00 | 5.00 to 6.00 | CC(C)(C)OC(=O)N1CC2CCC1CN2C(=O)Cn1cc(Nc2ncc(Cl)c(NCc3ccccc3)n2)cn1 (centres unmarked) [Example I-197] |
| 6.00 to 7.00 | 5.00 to 6.00 | Cn1cc(Nc2ncc(Cl)c(NCc3cccc(S(N)(=O)=O)c3)n2)cn1 [Example I-198] |
| 6.00 to 7.00 | 5.00 to 6.00 | NS(=O)(=O)c1cccc(CNc2nc(Nc3cnn(CCO)c3)ncc2Cl)c1 [Example I-199] |
| 6.00 to 7.00 | 5.00 to 6.00 | CNS(=O)(=O)c1cccc(CNc2nc(Nc3cnn(C)c3)ncc2Cl)c1 [Example I-200] |
| 6.00 to 7.00 | 5.00 to 6.00 | Clc1cnc(Nc2cn[nH]c2)nc1NCc1ccccc1 [Example I-201] |
| 6.00 to 7.00 | 6.00 to 7.00 | NC(=O)Cn1cc(Nc2ncc(Cl)c(NCc3ccccc3)n2)cn1 [Example I-206] |
| 6.00 to 7.00 | < 5.00 | CC(C)(C)OC(=O)N1CCN(C(=O)Cn2cc(Nc3ncc(Cl)c(NCc4ccccc4)n3)cn2)CC1 [Example I-207] |
| 6.00 to 7.00 | 6.00 to 7.00 | CNC(=O)Cn1cc(Nc2ncc(Cl)c(NCc3cccc(F)c3F)n2)cn1 [Example I-208] |
| 7.00 to 8.00 | 5.00 to 6.00 | CC(O)Cn1cc(Nc2ncc(Cl)c(NCc3c(F)cccc3F)n2)cn1 (centres unmarked) [Example I-209] |
| 6.00 to 7.00 | 6.00 to 7.00 | CNC(=O)Cn1cc(Nc2ncc(Cl)c(NCc3ccccc3F)n2)cn1 [Example I-211] |
| 6.00 to 7.00 | 6.00 to 7.00 | CNC(=O)Cn1cc(Nc2ncc(Cl)c(NCc3cccc(F)c3)n2)cn1 [Example I-212] |
| 6.00 to 7.00 | 6.00 to 7.00 | CC(O)Cn1cc(Nc2ncc(Cl)c(NCc3ccccc3F)n2)cn1 (centres unmarked) [Example I-213] |
| 6.00 to 7.00 | 5.00 to 6.00 | CC(O)Cn1cc(Nc2ncc(Cl)c(NCc3cccc(F)c3)n2)cn1 (centres unmarked) [Example I-214] |
| 6.00 to 7.00 | 6.00 to 7.00 | CC(O)Cn1cc(Nc2ncc(Cl)c(NCc3cccc(F)c3F)n2)cn1 (centres unmarked) [Example I-215] |
| 6.00 to 7.00 | 5.00 to 6.00 | CC(O)Cn1cc(Nc2ncc(Cl)c(NCc3ccccc3)n2)cn1 (centres unmarked) [Example I-216] |
| 6.00 to 7.00 | 5.00 to 6.00 | CN(C)C(=O)Cn1cc(Nc2ncc(Cl)c(NCc3ccccc3)n2)cn1 [Example I-217] |
| 7.00 to 8.00 | 6.00 to 7.00 | OCCn1cc(Nc2ncc(Cl)c(NCc3ccc(O)cc3)n2)cn1 [Example I-219] |
| 6.00 to 7.00 | 5.00 to 6.00 | CC(C)(C)OC(=O)N1CC2(CN(C(=O)Cn3cc(Nc4ncc(Cl)c(NCc5ccccc5)n4)cn3)C2)C1 [Example I-220] |
| 6.00 to 7.00 | 6.00 to 7.00 | CN(C)CCNC(=O)Cn1cc(Nc2ncc(Cl)c(NCc3ccccc3)n2)cn1 [Example I-221] |
